This note sets out measurements from patent US11166942B2 (PRAXIS BIOTECH LLC, priority 2018, dated 2021).

Assay [1] concerns CT26 tumor-bearing Balb/c mice, gastrocnemius. Description: Cachexia-induced muscle atrophy. Type of assay: in vivo, mouse. Particulars: 10 mg/kg daily oral gavage for 12 days. The procedure: Wild type six-weeks-old male Balb/c mice obtained from the vivarium Fundación Ciencia & Vida Chile (Santiago, Chile) were used. Mice were housed in independent plastic cages in a room maintained at 25° C. with a 12-h:12-h light:dark cycle.
1×10^6 CT26 colon carcinoma cell line (ATCC #CRL-2638, ATCC Manassas, Va.) were injected subcutaneously in the right lower flank of each animal for induction of cachexia-induced muscle atrophy as described (Nat Commun. 2012 Jun. 12; 3:896). Non-injected animals were used as controls. At day 7 post tumor-cell injection, animals were randomized into two groups and treated with 10 mg/kg of test compound formulated in 50% Polyethylene glycol (PEG-400) in distilled water, or with vehicle (50% PEG-400 in distilled water) by daily oral gavage for 12 days.
After 12 treatments, animals were sacrificed and gastrocnemius were removed from both hindlimbs. Muscles derived from non-tumor-bearing mice were used as control.
Upon collection, muscles were immediately frozen in liquid nitrogen and then stored at −80° C. The frozen muscles were then homogenized with a T 10 basic ULTRA-TURRAX (IKa) in ice-cold buffer lysis (Cell Signaling 9803) and protease and phosphatase inhibitors (Roche). Lysates were sonicated for 3 min and centrifuged at 13,000 rpm for 20 minutes at 4° C. Protein concentration in supernatants was determined using BCA Protein Assay Kit (Pierce). Equal amount of protein was loaded on SDS-PAGE gels. […]
ATF4 (Abcam), Atrogin-1 (ECM Biosciences), MuRF-1 (Santa Cruz Biotechnology) and β-actin (Sigma-Aldrich) antibodies were used as primary antibodies. […] Quantification of protein bands was done by densitometry using ImageJ software.
Expression of ATF4 and the muscle atrophy markers, Atrogin-1 and MuRF-1, of gastrocnemius derived from control and CT26 tumor-bearing mice treated with vehicle or compound 58 are shown in FIG. 10A. […] The levels were normalized to β-actin expression and percentage was calculated as the percent relative to the expression of non-tumor-bearing mice (Control) which corresponds to 100%. […]

Assay [2] concerns Balb/c mice with denervated hind limb, tibialis anterior. Description: Denervation-induced muscle atrophy. Type of assay: in vivo, mouse. Here is the method: Wild type eight-weeks-old male Balb/c mice obtained from the vivarium Fundación Ciencia & Vida Chile (Santiago, Chile) were used. Mice were housed in independent plastic cages in a room maintained at 25° C. with a 12-h:12-h light:dark cycle.
After a deeply anesthetized (isoflurane inhaled in medical oxygen), mice were denervated by surgical removal of ˜2 mm of sciatic nerve from one hindlimb. The incisions were closed using sutures. All procedures were performed under sterile conditions and the mice were daily monitored.
After seven days of denervation, animals receive oral administration every day via feeding tubes (15 gauge) of vehicle (50% Polyethylene glycol 400 (Sigma-Aldrich P3265) in distilled water) or 10 mg/kg of compound 58 formulated in vehicle solution.
After 14 days of denervation, animals were sacrificed and tibialis anterior were removed from both hindlimbs. Muscles derived from non-denervated hind limb were used as control.
Upon collection, muscles were immediately frozen in liquid nitrogen and stored at −80° C. The frozen muscles were then homogenized with a T 10 basic ULTRA-TURRAX (IKa) in ice-cold buffer lysis (Cell Signaling 9803) and protease and phosphatase inhibitors (Roche). Lysates were sonicated for 3 min and centrifuged at 13,000 rpm for 20 minutes at 4° C. Protein concentration in supernatants was determined using BCA Protein Assay Kit (Pierce). Equal amount of protein was loaded on SDS-PAGE gels. […]
ATF4 (Abcam), Atrogin-1 (ECM Biosciences), MuRF-1 (Santa Cruz Biotechnology) and R-actin (Sigma-Aldrich) antibodies were used as primary antibodies. […] Quantification of protein bands was done by densitometry using ImageJ software.
Expression of ATF4 and the muscle atrophy markers, Atrogin-1 and MuRF-1, of tibialis anterior derived from control and denervated hind limbs of mice treated with vehicle or compound 58 are shown in FIG. 11A. […] The levels were normalized to pi-actin expression and percentage was calculated as the percent relative to the expression of non-denervated hind limbs from control mice (Vehicle) which corresponds to 100%. […]

In another assay the test system is ATF4. Description: ATF4 expression inhibition assay (immunoblot, Tg-stressed HEK293T cells). Type of assay: cell-based, human. Particulars: 100 nM Tg, 3 hours, 0.1 nM to 10 μM compound (FIG. 6). The procedure: HEK293T cells were maintained at 37° C. and 5% CO2 in Dulbecco's Modified Eagle's Media (DMEM) supplemented with 10% fetal bovine serum (FBS), 2 mM L-glutamine, 100 U/ml penicillin, and 100 μg/ml streptomycin. After reaching 80% of confluence, cells were detached and seeded on 6 well plates in complete media, allowed to recover overnight and treated for 3 hours with 100 nM thapsigargin (Tg) in the presence of various concentrations ranging from 0.1 nM to 10 μM. Cells without treatment (Veh) or cells treated with Tg alone were used as controls.
After 3 hours of treatment with Tg and the test compound, cells were lysed with SDS-PAGE lysis buffer. Lysates were transferred to 1.5 ml tubes and sonicated for 3 min, and total protein amounts were quantified using BCA Protein Assay Kit (Pierce). Equal amount of proteins was loaded on SDS-PAGE gels. Proteins were transferred onto […] PVDF membranes (BioRad) and probed with primary antibodies diluted in Tris-buffered saline supplemented with 0.1% Tween 20 and 3% bovine serum albumin.
ATF4 (11815) antibody (Cell Signaling Technologies) and β-actin (Sigma-Aldrich) antibodies were used as primary antibodies. […]
(In western blotting, separated proteins are transferred to a membrane and probed.)

On to `O=C(NN1CCN(C[C@@H](O)COc2ccc(Cl)c(F)c2)CC1)c1ccc2cc(Cl)ccc2n1` [Compound 58, (R)-6-chloro-N-(4-(3-(4-chloro-3-fluorophenoxy)-2-hydroxypropyl)piperazin-1-yl)quinoline-2-carboxamide], for which the “ATF4 expression in gastrocnemius” value in assay [1] (vs vehicle (FIG. 10B)) is recorded as “reduction”. Also, in assay [1] (vs vehicle (FIG. 10C)), the “Atrogin-1 expression in gastrocnemius” value was “reduction”. Also, the “MuRF-1 expression in gastrocnemius” value in assay [1] (vs vehicle (FIG. 10D)) is listed as “reduction”. Further, in assay [2] (10 mg/kg oral every day from day 7 to 14, vs vehicle (FIG. 11B)), the “ATF4 expression in tibialis anterior” value is reported as “reduction”. Moreover, in assay [2] (10 mg/kg oral every day from day 7 to 14, vs vehicle (FIG. 11C)), the “Atrogin-1 expression in tibialis anterior” value is “reduction”. In addition, the “MuRF-1 expression in tibialis anterior” value in assay [2] (10 mg/kg oral every day from day 7 to 14, vs vehicle (FIG. 11D)) is reported as “reduction”. For the same compound, in the assay with ATF4, the “ATF4 expression under Tg stress (immunoblot)” value is reported as “inhibits the expression of ATF4 under Tg treatment in a dose dependent manner”.
